Laboratory results reported in patent US8399682B2, “Substituted (pyrazolylcarbonyl)imidazolidinones and their use” (AiCuris GmbH & Co. KG, priority 2008, dated 2013).
pIC50: −log10 of the molar value. Like-named read-outs stand apart in the source and are kept apart here.

Legend:
HIV-1NL4-3 wt = assay: Light assay with wild-type HI reporter virus in MT4 7F2 cells; assay type: cell-based; details: Human immunodeficiency virus 1, 2% FCS
Experimental: (§1) For the mixture for a 96-well MTP, 3 million MT4 7F2 cells are pelleted, suspended in 1 ml of RPMI 1640 medium without phenol red (Invitrogen, Karlsruhe, Germany)/10% FCS/10% AIM-V (Invitrogen, Karlsruhe, Germany) and incubated together with a suitable amount of the corresponding HIV-1NL4-3 reporter virus at 37° C. for 2 hours (pellet infection). Unadsorbed viruses are subsequently washed out with PBS, and the infected cells are pelleted again and suspended in 8 ml of RPMI 1640 medium without phenol red/2% or 10% FCS/10% AIM-V. 80 μl thereof are pipetted into each well of a white 96-well MTP with 20 μl of test substance in suitable dilution. To avoid edge effects, the wells on the edge of the MTP are not used for substance dilutions. The second vertical row of the MTP contains only infected cells (virus control) and the eleventh vertical row only uninfected cells (cell control), in each case in RPMI 1640 medium without phenol red/2% or 10% FCS/10% AIM-V. The other wells of the MTP contain the compounds of the invention in various concentrations starting from the third vertical row, from which the test substances are diluted in 3-fold steps up to the tenth vertical row 3^7-fold. The test substances are dissolved in DMSO, whereby the final DMSO concentration in the test mixture eventually is 1%. The test mixtures are incubated at 37° C./5% CO2 for five days and, after the addition of 15 μl of Lu164 substrate (5 mg/ml coelenterazine dissolved in 30 μM glutathione/DMSO, 100 mM NaCl, 1M MES, 100 mM glutathione), evaluated by luminometry. The resulting values are in the region of 1 000 000 RLUs (relative light units) for the virus control and 300 to 400 RLUs for the cell control. The EC50 values of the test substances are determined as the concentration at which the virus replication measured in RLUs is 50% of the untreated infected cells.

HIV-1NL4-3 K103N-Y181C = assay: Light assay with inhibitor-resistant HI reporter virus in MT4 7F2 cells; assay type: cell-based; details: Human immunodeficiency virus 1, read-out: EC50 (nM) MT4 7F2 cells HIV-1NL4-3 K103N-Y181C 2% FCS
Experimental: as §1

HIV-1LAI = assay: H9 assay with wild-type HIV-1 (HIV-1LAI supernatant infection, AlamarBlue); assay type: cell-based; details: Human immunodeficiency virus 1, H9 cells, 10% FCS
Experimental: For the mixture for a 96-well MTP, 3 million PBLs are pelleted, suspended in 1 ml of RPMI 1640 medium/10% FCS and incubated together with a suitable amount of HIV-1LAI (NIH AIDS Research & Reference Reagent Program, Germantown, USA) at 37° C. for 2 hours (pellet infection). Unadsorbed viruses are subsequently washed out with PBS, and the infected cells are pelleted again and suspended in 18 ml of RPMI 1640 medium/10% FCS/interleukin-2 (40 U/ml). 180 μl thereof are pipetted into each well of a white 96-well MTP with 20 μl of test substance in suitable dilution. Alternatively, after preparation of the substance dilutions in the MTP, the HIV is pipetted in together with the cells and is not washed out again (supernatant infection). In order to avoid edge effects, the wells at the edge of the MTP are not used for substance dilutions. The second vertical row of the MTP contains only infected cells (virus control) and the eleventh vertical row only uninfected cells (cell control), in each case in RPMI 1640 medium/10% FCS/interleukin-2 (40 U/ml). The other wells of the MTP contain the compounds of the invention in various concentrations starting from the third vertical row, from which the test substances are diluted in 3-fold steps up to the tenth vertical row 3^7-fold. The test substances are dissolved in DMSO, whereby the final DMSO concentration in the test mixture eventually is 1%. The test mixtures are incubated at 37° C./5% CO2. After 5 and 7 days, 50 μl of cell-free supernatant are removed from each well to determine the amount of p24 present by means of a p24 ELISA (HIV-1 p24^CA Antigen Capture Assay Kit, NCI-Frederick Cancer Research and Development Center, Frederick, USA). From the resulting values of the photometric evaluation (450/620 nm) the EC50 values of the test substances are determined as the concentration at which the amount of p24 is 50% of the untreated infected cells.
Alternatively, H9 cells (ATCC, Wesel, Germany) are employed instead of PBLs for testing the test substances. H9 cells are incubated in RPMI 1640 medium with 2% or 10% FCS as a HIV-1LAI supernatant infection at 37° C./5% CO2, (20 μl of substance dilution and 80 μl of cells/virus per well) in accordance with the pattern described above for 5 days. Subsequently, 10 μl of AlamarBlue (Invitrogen, Karlsruhe, Germany) are added to each well, and the MTPs are incubated at 37° C. for 3 hours before the fluorimetric evaluation takes place (544/590 nm). The resulting values are about 40 000 for the untreated uninfected cells and about 7000 for the untreated infected cells. In the low concentration range, the EC50 values of the test substances are determined as the concentration at which the fluorescence is 50% of the untreated uninfected cells (in each case subtracting the values of the untreated infected cells). In addition, in the high concentration range, the CC50 values of the test substances are determined as the concentration at which the fluorescence is 50% of the untreated uninfected cells (in each case subtracting the values of the untreated infected cells).

reverse transcriptase = molecular target: T1, reverse transcriptase (Human immunodeficiency virus type 1 group M subtype B, UniProt P04585); assay: Biochemical Reverse Transcriptase Assay (Reverse Transcriptase Assay, colorimetric, Roche); details: for IC50: read-out: IC50 (nM) RT Assay
T1 construct: negative control (mixture without reverse transcriptase); purchased Roche Diagnostics GmbH, Mannheim, Germany
Experimental: The “Reverse Transcriptase Assay, colorimetric” (Roche Diagnostics GmbH, Mannheim, Germany) is used in accordance with the manufacturer's information. The test substances are dissolved in DMSO and are used in the test diluted in 5-fold steps (final DMSO concentration 1%). The resulting values of the photometric evaluation (405/492 nm) are less than 0.1 for the negative control (mixture without reverse transcriptase) and are in the region of 1.5 for the positive control (mixture without test substance). The IC50 values of the test substances are determined as the concentration of the test substance dilution at which the measured optical density is 50% of the positive control.

Structure (SMILES) | EC50 (HIV-1NL4-3 wt) [nM] | EC50 (HIV-1NL4-3 K103N-Y181C) [nM] | EC50 (HIV-1LAI) [nM] | IC50 (reverse transcriptase) [nM] | pIC50 (reverse transcriptase)
O=C1CN(C(=O)c2cc(-c3cc(F)cc(Cl)c3)n(-c3ccc(F)c(Cl)c3)n2)CN1 [Example 1, 1-{[1-(3-Chloro-4-fluorophenyl)-5-(3-chloro-5-fluorophenyl)-1H-pyrazol-3-yl]carbonyl}imidazolidin-4-one] | 0.2 | 3 | 2 | 38 | 
O=C1CN(C(=O)c2cc(-c3cc(F)cc(Cl)c3)n(-c3cccc(Cl)c3)n2)CN1 [Example 2, 1-{[5-(3-Chloro-5-fluorophenyl)-1-(3-chlorophenyl)-1H-pyrazol-3-yl]carbonyl}imidazolidin-4-one] | 0.06 | 11 | 0.2 | 34 | 
O=C1CN(C(=O)c2cc(-c3cc(F)cc(F)c3)n(-c3cccc(Cl)c3)n2)CN1 [Example 3, 1-{[1-(3-Chlorophenyl)-5-(3,5-difluorophenyl)-1H-pyrazol-3-yl]carbonyl}imidazolidin-4-one] | 0.03 | 7 | 0.2 | 37 | 
O=C1CN(C(=O)c2cc(-c3cccc(Cl)c3)n(-c3cccc(Cl)c3)n2)CN1 [Example 4, 1-{[1,5-Bis(3-chlorophenyl)-1H-pyrazol-3-yl]carbonyl}imidazolidin-4-one] | 1 | 45 | 11 | 75 | 
COc1cc(F)cc(-c2cc(C(=O)N3CNC(=O)C3)nn2-c2cccc(Cl)c2)c1 [Example 21, 1-{[1-(3-Chlorophenyl)-5-(3-fluoro-5-methoxyphenyl)-1H-pyrazol-3-yl]carbonyl}imidazolidin-4-one] | 1 | 38 | 3 | 59 | 
COc1cc(F)cc(-c2cc(C(=O)N3CNC(=O)C3)nn2-c2ccc(F)c(Cl)c2)c1 [Example 22, 1-{[1-(3-Chloro-4-fluorophenyl)-5-(3-fluoro-5-methoxyphenyl)-1H-pyrazol-3-yl]carbonyl}imidazolidin-4-one] | 0.3 | 10 | 2 | 131 | 
N#Cc1cccc(-c2cc(C(=O)N3CNC(=O)C3)nn2-c2ccc(F)c(Cl)c2)c1 [Example 25] | 0.6 | 30 | 2 | 99 | 
O=C1CN(C(=O)c2cc(-c3cccc(F)c3)n(-c3ccc(F)c(Cl)c3)n2)CN1 [Example 26, 1-{[1-(3-Chloro-4-fluorophenyl)-5-(3-fluorophenyl)-1H-pyrazol-3-yl]carbonyl}imidazolidin-4-one] | 2 | 65 | 11 | 104 | 
O=C1CN(C(=O)c2cc(-c3cc(F)cc(C(F)(F)F)c3)n(-c3cccc(Cl)c3)n2)CN1 [Example 30, 1-({1-(3-Chlorophenyl)-5-[3-fluoro-5-(trifluoromethyl)phenyl]-1H-pyrazol-3-yl}carbonyl)imidazolidin-4-one] | 3 | 16 | 8 | 297 | 
O=C1CN(C(=O)c2cc(-c3cccc(Cl)c3)n(-c3cccc(Br)c3)n2)CN1 [Example 32, 1-{[1-(3-Bromophenyl)-5-(3-chlorophenyl)-1H-pyrazol-3-yl]carbonyl}imidazolidin-4-one] | 0.1 | 25 | 0.7 | 65 | 
O=C1CN(C(=O)c2cc(-c3ccc(F)c(Cl)c3)n(-c3cccc(Br)c3)n2)CN1 [Example 33, 1-{[1-(3-Bromophenyl)-5-(3-chloro-4-fluorophenyl)-1H-pyrazol-3-yl]carbonyl}imidazolidin-4-one] | 0.07 | 3 | 0.5 | 8 | 
O=C1CN(C(=O)c2cc(-c3cc(F)cc(OCCO)c3)n(-c3ccc(F)c(Cl)c3)n2)CN1 [Example 36] | 0.6 | 45 | 3 |  | 7.28
O=C1CN(C(=O)c2cc(-c3cccc(OCCCN4CCOCC4)c3)n(-c3cccc(Cl)c3)n2)CN1 [Example 37, 1-({1-(3-Chlorophenyl)-5-[3-(3-morpholin-1-ylpropoxy)phenyl]-1H-pyrazol-3-yl}carbonyl)imidazolidin-4-one] | 18 | 2000 | 33 | 175 | 
COc1cccc(-c2cc(C(=O)N3CNC(=O)C3)nn2-c2ccc(F)c(Cl)c2)c1 [Example 38, 1-{[1-(3-Chloro-4-fluorophenyl)-5-(3-methoxyphenyl)-1H-pyrazol-3-yl]carbonyl}imidazolidin-4-one] | 9 | 80 | 120 | 365 | 
Cc1cc(F)cc(-c2cc(C(=O)N3CNC(=O)C3)nn2-c2cccc(Cl)c2)c1 [Example 51, 1-{[1-(3-Chlorophenyl)-5-(3-fluoro-5-methylphenyl)-1H-pyrazol-3-yl]carbonyl}imidazolidin-4-one] | 0.4 | 15 | 1 | 60 | 
N#Cc1cccc(-n2nc(C(=O)N3CNC(=O)C3)cc2-c2ccc(F)c(Cl)c2)c1 [Example 52, 1-{[5-(3-Chloro-4-fluorophenyl)-1-(3-Cyanophenyl)-1H-pyrazol-3-yl]carbonyl}imidazolidin-4-one] | 0.1 | 17 | 2 | 38 | 
